The text below walks through data of patent publication EP2433619A1, “Novel antitumoral agent and its therapeutic uses” (Intsel Chimos, priority 2010, dated 2012).

For one data set, the system named is tumour astrocyte lines. To be noted: lines from primary cultures of astrocytes of newborn rat brain; cited from earlier work.
Data set [1] deals with rat brain C6 glioblastoma cells. Nature of the data set: intratumoral injection of liposomes in rats with intracerebral implantation of C6 glial cells (earlier studies). The format is in vivo. The following applies: compared with animals treated with liposomes only. From the text: The effect of 7-β-hydroxy cholesteryl-3-β-oleate-ester on rat brain C6 glioblastoma cells was studied (Werthle M & All).
The ester of 7-β-hydroxy-cholesterol, the 7-β-hydroxy cholesteryl-3-β-oleate-ester (7-β-OHCOE) belongs to the oxysterols.

Details of data set [2]: species or system rats and mice. To be noted: in vivo.
Data set [3] can be described thus: stability of Oxysterol solution to autoclave sterilisation. It is filed as physicochemical. Here is the method: A solution of 5 mg Oxysterol in 5 ml of a mixture Acetonitrile / isopropanol (44/56 v/v) is prepared then sterilized in the autoclave for 20 min at 121°C. The solution is analysed according to a […] method of oxysterol before and after autoclaving. The solution of oxysterol is subjected to a second autoclaving for 30minutes at 121°C. The areas of the peaks of oxysterol are determined and the yield after autoclaving is calculated in the following manner Yield: Area of oxysterol after autoclaving; Area of oxysterol before autoclaving x 100 [formula]

A short description of data set [4]: stability of active principle in the finished product to autoclaving. It is filed as physicochemical. To be noted: for Content in oxysterol: samples PE1-PE3, listed as oxysterol. Here is the method: A batch has been subjected to a dosage before and after autoclaving 20 minutes at 121 °C, to determine whether oxysterol also resists to autoclaving. Three samples have been analysed :
The autoclaving yield is calculated in the following manner Yield autoclaving: Content oxysterol after autoclaving; Content oxysterol before autoclaving x 100 [formula]

Another data set relates to glioma C6 Cells. Briefly: single stereotactic cerebral intra-ventricular injection in rats implanted with glioma C6 cells. It is filed as in vivo.
The subject of data set [5] is Advanced glioblastoma, Grade III o IV astrocytoma, Anaplastic oligodendroglioma. Nature of the data set: compassionate clinical trial, stereotactic administration of liposomal form. The format is in vivo, patients. The following applies: 1 to 3 doses, total 0.05 to 3.2mg/patient.
In data set [6] the test system is rat brain C6 glioblastoma cells. To be noted: injection of liposomes containing the ester vs liposomes without oxysterol (Werthle M & All); cited from earlier work.
Setting [7] is: 2 autoclavings, second for 30 minutes at 121°C.
The mark [8] stands for this setting: after autoclaving 20 minutes at 121 °C.

Where “and” joins values, the source holds several entries; their conditions need not be identical. Equal values may be shown once. Entries after “also recorded” stand apart in the source; their conditions may differ.

In the case of `CC(C)CCC[C@@H](C)[C@H]1CC[C@H]2[C@@H]3[C@@H](O)C=C4C[C@@H](O)CC[C@]4(C)[C@H]3CC[C@]12C` [7-β-OH-CH, 7 beta-hydroxy-cholesterol], the “lethal effect / cytotoxicity” value in the data set on tumour astrocyte lines was “lethal effect”.
Take `CCCCCCCC/C=C\CCCCCCCC(=O)O[C@H]1CC[C@@]2(C)C(=C[C@H](O)[C@H]3[C@@H]4CC[C@H]([C@H](C)CCCC(C)C)[C@@]4(C)CC[C@@H]32)C1` [7-β-OHCOE, 7-β-hydroxy cholesteryl-3-β-oleate-ester]: the tumor growth entry in data set [1] is on record as “significant regression of tumor growth; also recorded: spectacular regression of tumour growth”. Further, the metabolism result in data set [2] is “metabolized to cholesterol within the cerebral parenchyma”. Moreover, the noxious effects result in data set [2] is “no noxious effects”. Further, the “Area oxysterol after autoclaving” value in data set [3] (1 autoclaving, 20 min at 121°C) is 5517,4; in data set [3] (setting [7]), 5716,3. Besides, the Yield of autoclaving in data set [3] (1 autoclaving, 20 min at 121°C) is reported as 100,2%; in data set [3] (setting [7]), 100,9%. Also, the “Area oxysterol before autoclaving” value in data set [3] (1 autoclaving, 5 mg in 5 ml Acetonitrile / isopropanol (44/56 v/v)) is listed as 5506,5; in data set [3] (2 autoclavings) it was 5666,1. For the same compound, the “Content in oxysterol, Average” value in data set [4] (setting [8]) is reported as 1,43 mg/g; in data set [4] (before autoclaving), 1,46 mg/g. The Content in oxysterol was 1,42 mg/g and 1,41 mg/g and 1,45 mg/g in data set [4] (setting [8]); 1,45 mg/g and 1,46 mg/g in data set [4] (before autoclaving). Besides, the “average yield of autoclaving” value in data set [4] (autoclaving 20 minutes at 121 °C) was 97,9%. Moreover, the survival result in the data set on glioma C6 Cells (injection of liposomal form in experimental animals) was “did affect neither survival nor body weight”. Further, the “total tumoral volume, mean value” with glioma C6 Cells (liposomal, injected 3 days after implantation, sacrificed 10 days after treatment, reduced from 4.4mm3) is recorded as 0.8 mm3. In addition, the body weight result in the data set with glioma C6 Cells (rat, in vivo) is on record as “did affect neither survival nor body weight”. In data set [5] (11 patients included), the “partial or total remission observed” value is given as 3 patients. Besides, the side effects entry in data set [5] (11 patients) is “No significant side effects were observed”. Further, in data set [6], the tumor volume entry is “marked decrease in tumor volume”.
